In patent US7153849B2, “Antidepressant arylpiperazine derivatives of hetrocycle-fused benzodioxans” (Wyeth, priority 2002, dated 2006):
Counter-ions that a name gives are not always drawn.

Experiments:
serotonin transporter = target: T1, serotonin transporter (Rattus norvegicus, UniProt P31652); assay: 3H-paroxetine displacement from rat frontal cortical membranes (serotonin transporter affinity); format: binding; conditions: for Ki: 3H-paroxetine, male rat frontal cortical membranes, read-out: 5-HT Transporter Affinity Ki
T1 construct: displace ^3H-paroxetine from male rat frontal cortical membranes; from tissue; host or cells: male rat frontal cortical membranes

human 5HT1A receptors = target: T2, human 5HT1A receptors (Homo sapiens, UniProt P08908); assay: [3H] 8-OH-DPAT displacement from 5HT1A receptor in stably transfected CHO cells; format: binding; conditions: CHO cells with human 5HT1A; for Ki: read-out: 5HT1A Receptor Affinity Ki
T2 construct: expressed in transfected cells; host or cells: CHO cells
T2 sequence (P08908 1-422): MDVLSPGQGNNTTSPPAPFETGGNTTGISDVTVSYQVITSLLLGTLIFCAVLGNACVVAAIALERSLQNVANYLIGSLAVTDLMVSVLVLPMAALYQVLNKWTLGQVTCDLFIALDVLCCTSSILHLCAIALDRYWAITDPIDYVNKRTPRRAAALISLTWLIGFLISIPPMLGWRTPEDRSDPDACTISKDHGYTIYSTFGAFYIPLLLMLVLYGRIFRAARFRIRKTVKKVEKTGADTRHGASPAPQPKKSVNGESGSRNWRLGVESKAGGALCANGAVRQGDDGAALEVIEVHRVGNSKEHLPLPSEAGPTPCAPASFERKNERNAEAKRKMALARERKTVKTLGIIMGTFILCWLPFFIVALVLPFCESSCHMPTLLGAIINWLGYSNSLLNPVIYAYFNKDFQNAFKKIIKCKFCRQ
Description: High affinity for the serotonin 5HT1A receptor was established by testing the claimed compound's ability to displace [^3H] 8-OH-DPAT (dipropylamino-tetralin) from the 5HT1A serotonin receptor following a modification of the procedure of Hall et al., J. Neurochem. 44, 1685 (1985) which utilizes CHO cells stably transfected with human 5HT1A receptors.

[1] = target: T3, cloned human 5HT1A receptors (Homo sapiens, UniProt P08908); assay: 35S-GTPγS binding assay, 5HT1A antagonist activity; format: biochemical; conditions: for 5HT1A Function Imax: maximum inhibitory effect, vs 8-OH-DPAT, unit assumed; for IC50: reversal of 8-OH-DPAT (antagonist), read-out: 5HT1A Function IC50; for 5HT1A Function Emax / EC50: increase in binding (agonist); for EC50: read-out: 5HT1A Function EC50
T3 construct: expressed in transfected cells
T3 sequence (P08908 1-422): T2 sequence (P08908 1-422)
Description: Antagonist activity at 5HT1A receptors was established by using a ^35S-GTPγS binding assay similar to that used by Lazareno and Birdsall (Br. J. Pharmacol. 109:1120, 1993), in which the test compound's ability to affect the binding of ^35S-GTPγS to membranes containing cloned human 5HT1A receptors was determined. Agonists produce an increase in binding whereas antagonists produce no increase but rather reverse the effects of the standard agonist 8-OH-DPAT. The test compound's maximum inhibitory effect is represented as the Imax, while its potency is defined by the IC50.

T1 sequence (P31652 whole entry): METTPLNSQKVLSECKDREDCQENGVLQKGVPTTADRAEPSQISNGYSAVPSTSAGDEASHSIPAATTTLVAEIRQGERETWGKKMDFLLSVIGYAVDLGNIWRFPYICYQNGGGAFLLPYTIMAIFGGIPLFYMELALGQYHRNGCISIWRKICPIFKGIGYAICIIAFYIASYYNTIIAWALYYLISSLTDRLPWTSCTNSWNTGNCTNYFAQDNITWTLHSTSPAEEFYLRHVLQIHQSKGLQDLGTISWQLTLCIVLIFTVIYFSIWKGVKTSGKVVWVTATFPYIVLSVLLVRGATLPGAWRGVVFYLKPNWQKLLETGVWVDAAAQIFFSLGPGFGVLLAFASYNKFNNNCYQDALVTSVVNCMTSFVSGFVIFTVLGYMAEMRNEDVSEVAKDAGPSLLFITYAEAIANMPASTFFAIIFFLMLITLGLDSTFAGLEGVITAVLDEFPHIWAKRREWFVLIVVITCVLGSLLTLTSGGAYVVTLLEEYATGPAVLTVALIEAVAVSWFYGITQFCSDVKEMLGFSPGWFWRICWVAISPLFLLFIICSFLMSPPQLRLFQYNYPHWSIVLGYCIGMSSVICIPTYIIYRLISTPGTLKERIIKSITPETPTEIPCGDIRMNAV

Structure (SMILES)	Ki (serotonin transporter)	Ki (human 5HT1A receptors)	5HT1A Function Imax [1]	IC50 [1]	also measured
Cc1ccc2c3c(ccc2n1)OC[C@H](CN1CCN(c2ccc(Cl)c(Cl)c2)CC1)O3 (as salt: fumarate) [Example 3, (2S)-2-{[4-(3,4-dichlorophenyl)piperazin-1-yl]methyl}-8-methyl-2,3-dihydro[1,4]dioxine[2,3-f]quinoline]					melting point: 140 to 144 °C
Cc1ccc2c3c(ccc2n1)OC[C@H](CN1CCN(c2cccc4c2OCCO4)CC1)O3 (as salt: fumarate) [Example 7, (2S)-2-{[4-(dihydrobenzo[1,4]dioxin-5-yl)piperazin-1-yl]methyl}-8-methyl-2,3-dihydro[1,4]dioxino[2,3-f]quinoline]					melting point: 154 to 155 °C
Cc1ccc2c3c(ccc2n1)OC[C@H](CN1CCN(c2ccc4ccccc4n2)CC1)O3 (as salt: hydrochloride) [Example 12, (2S)-8-methyl-2-[(4-quinolin-2-ylpiprazin-1-yl)methyl]-2,3-dihydro[1,4]dioxino[2,3-f]quinoline]					melting point: 237 to 243 °C
Cc1ccc2c3c(ccc2n1)OC[C@H](CN1CCN(c2ccc4cc([N+](=O)[O-])ccc4n2)CC1)O3 (as salt: salt) [Example 13]					melting point: 200 °C (dec.)
Cc1ccc2c3c(ccc2n1)OC[C@H](CN1CCN(c2ccc(Cl)cc2)CC1)O3 [Example 2, (2S)-2-{[4-(4-chlorophenyl)piperazin-1-yl]methyl}-8-methyl-2,3-dihydro[1,4]dioxino[2,3-f]quinoline]	565 nM	22.9 nM	26%	632 nM	
Cc1ccc2c3c(ccc2n1)OC[C@H](CN1CCN(c2ccc(Cl)c(Cl)c2)CC1)O3 [Example 3, (2S)-2-{[4-(3,4-dichlorophenyl)piperazin-1-yl]methyl}-8-methyl-2,3-dihydro[1,4]dioxine[2,3-f]quinoline]	76 nM	1050 nM			
Cc1ccc2c3c(ccc2n1)OC[C@H](CN1CCN(c2cccc4c2OCCO4)CC1)O3 [Example 7, (2S)-2-{[4-(dihydrobenzo[1,4]dioxin-5-yl)piperazin-1-yl]methyl}-8-methyl-2,3-dihydro[1,4]dioxino[2,3-f]quinoline]	1.2 nM			557 nM	5HT1A Receptor Affinity, % @ 1 μM (human 5HT1A receptors; @ 1 μM): 91% @ 1 μM
Cc1ccc2c3c(ccc2n1)OC[C@H](CN1CCN(c2ccc4ccccc4n2)CC1)O3 [Example 12, (2S)-8-methyl-2-[(4-quinolin-2-ylpiprazin-1-yl)methyl]-2,3-dihydro[1,4]dioxino[2,3-f]quinoline]	48 nM	47.3 nM	100%	3000 nM	
Cc1ccc2c3c(ccc2n1)OC[C@H](CN1CCN(c2ccc4cc([N+](=O)[O-])ccc4n2)CC1)O3 [Example 13]	0.25 nM	20 nM	70%	326 nM	
Cc1ccc2c3c(ccc2n1)OC[C@H](CN1CCN(c2ccc4cc(Cl)ccc4n2)CC1)O3 [Example 14]	0.65 nM	214 nM	58%	74.7 nM	
Cc1ccc2c3c(ccc2n1)OC[C@H](CN1CCN(c2ccc4cc(C#N)ccc4n2)CC1)O3 [Example 15, 2-(4-{[(2S)-8-methyl-2,3-dihydro[1,4]dioxino[2,3-f]quinolin-2-yl]methyl}piperazin-1-yl}quinoline-6-carbonitrile]	13.5 nM	3.7 nM		82.5 nM	
COc1cccc2c(N3CCN(C[C@H]4COc5ccc6nc(C)ccc6c5O4)CC3)coc12 [Example 16, (2S)-2-{[4-(7-methoxy-1-benzofuran-3-yl)-1-piperazinyl]methyl}-8-methyl-2,3-dihydro[1,4]dioxino[2,3-f]quinoline]	266 nM	28.5 nM			melting point: 56 °C
Cc1ccc2c3c(ccc2n1)OC[C@H](CN1CCN(c2coc4ccc(F)cc24)CC1)O3 [Example 17, (2S)-2-{[4-(5-fluoro-1-benzofuran-3-yl)-1-piperazinyl]methyl}-8-methyl-2,3-dihydro[1,4]dioxino[2,3-f]quinoline]	74 nM	718 nM			
Cc1ccc2c3c(ccc2n1)OC[C@H](CN1CCN(c2coc4ccccc24)CC1)O3 [Example 18, (2S)-2-{[4-(1-benzofuran-3-yl)-1-piperazinyl]methyl}-8-methyl-2,3-dihydro[1,4]dioxino[2,3-f]quinoline]	16 nM	40.3 nM			
Cc1ccc2c3c(ccc2n1)OC[C@H](CN1CCN(c2ccc4cc(C#N)ccc4n2)C[C@H]1C)O3 [Example 20]	688 nM	2.85 nM	92%	82.8 nM	
Cc1ccc2c3c(ccc2n1)OC[C@H](CN1CCN(c2ccc4ccccc4c2)CC1)O3 [Example 22, (2S)-8-methyl-2-{[4-(2-naphthyl)piperazin-1-yl]methyl}-2,3-dihydro[1,4]dioxino[2,3-f]quinoline]	19.8 nM	53.2 nM	76%	4540 nM	
Cc1ccc2c3c(ccc2n1)OC[C@H](CN1CCN(c2ccc4cc(C(N)=O)ccc4n2)CC1)O3 [Example 23]		7.21 nM	71%	129 nM	5-HT Transporter Affinity, % @ 1 μM (serotonin transporter): 56% @ 1 μM
N#Cc1ccc2nc(N3CCN(C[C@H]4COc5ccc6ncccc6c5O4)CC3)ccc2c1 [Example 24, (2S)-2-[4-(2,3-Dihydro-[1,4]dioxino[2,3-f]quinolin-2-ylmethyl)-piperazin-1-yl]-quinoline-6-carbonitrile]	310 nM	7.27 nM	58%	57 nM	
CCc1ccc2c3c(ccc2n1)OC[C@H](CN1CCN(c2ccc4cc(C#N)ccc4n2)CC1)O3 [Example 25, (2S)-2-[4-(8-Ethyl-2,3-dihydro-[1,4]dioxino[2,3-f]quinolin-2-ylmethyl)-piperazin-1-yl]-quinoline-6-carbonitrile]	67 nM	4.74 nM			5HT1A Function Emax [1]: 67; EC50 [1]: 1140 nM
Cc1nc2ccc3c(c2o1)O[C@@H](CN1CCN(c2ccc4cc(C#N)ccc4n2)CC1)CO3 [Example 26, (2S)-2-[4-(2-Methyl-7,8-dihydro-1,6,9-trioxa-3-aza-cyclopenta[a]naphthalen-8-ylmethyl)-piperazin-1-yl]-quinoline-6-carbonitrile]	407 nM	25.1 nM			5HT1A Function Emax [1]: 64; EC50 [1]: 700 nM
Cc1ccc2c3c(ccc2n1)OC[C@H](CN1CCNCC1)O3 [Example 29, 8-Methyl-2-piperazin-1-ylmethyl-2,3-dihydro-[1,4]dioxino[2,3-f]quinoline]	200 nM	1.26 nM	100%	1320 nM	
COc1ccc2nc(N3CCN(C[C@H]4COc5ccc6nc(C)ccc6c5O4)CC3)ccc2c1 [Example 30, (2S)-2-{[4-(6-methoxyquinolin-2-yl)piperazin-1-yl]methyl]-8-methyl-2,3-dihydro[1,4]dioxino[2,3-f]quinoline]					melting point: 158 to 160 °C
COc1ccc2nc(N3CCCN(C[C@H]4COc5ccc6nc(C)ccc6c5O4)CC3)ccc2c1 [Example 33, (2S)-2-{[4-(6-methoxyquinolin-2-yl)-1,4-diazepan-1-yl]methyl]-8-methyl-2,3-dihydro[1,4]dioxino[2,3-f]quinoline]	7.3 nM	1.75 nM	92%	316 nM	
